{
  "source": "patent US8802597B2",
  "about": "“Herbicidal pyrimidines” (E I du Pont de Nemours and Company, priority 2003, dated 2014)",
  "format_in_all_cases": "in vivo",
  "key": {"[1]": {"tested_on": "sugarcane (Saccharum officinarum)", "assay": "Test G sugarcane pre/postemergence", "conditions": "Postemergence, scale 0 to 100", "text": "Also at a different time, seed pieces (nodes) of sugarcane (Saccharum officinarum) were planted and treated preemergence and/or postemergence with some of the test chemicals formulated in the same manner. Treated plants and controls were maintained in a greenhouse for 14 days, after which time the treated plants were compared to controls and visually evaluated.\nPlant response ratings, summarized in Table G, are based on a scale of 0 to 100 where 0 is no effect and 100 is complete control. A dash (-) response means no test result."}, "[2]": {"tested_on": "sulfonylurea herbicide-resistant (SU-resistant) catchweed bedstraw (GALAP; Galium aparine)", "assay": "Test K postemergence", "conditions": "15 days", "protocol": "(§1) Seeds of plant species selected from sulfonylurea herbicide-susceptible (SU-susceptible) and sulfonylurea herbicide-resistant (SU-resistant) catchweed bedstraw (GALAP; Galium aparine) and wheat (TRZAW; Triticum aestivum) were treated with postemergence applications of test chemicals formulated in a non-phytotoxic solvent mixture which included a surfactant. Plants were treated at the 2-3 leaf stage and 2 whorl stage for wheat and catchweed bedstraw, respectively. Treated plants and controls were maintained in a controlled growth environment for 15 days after which time all species were compared to controls and visually evaluated. Plant response ratings, summarized in Table K, are based on a scale of 0 to 100 where 0 is no effect and 100 is complete control. A dash (-) response means no test result."}, "[3]": {"tested_on": "wheat (TRZAW; Triticum aestivum)", "assay": "Test K postemergence", "conditions": "15 days", "protocol": "as §1"}, "[4]": {"tested_on": "sulfonylurea herbicide-susceptible (SU-susceptible) catchweed bedstraw (GALAP; Galium aparine)", "assay": "Test K postemergence", "conditions": "15 days", "protocol": "as §1"}, "[5]": {"tested_on": "Canada horseweed (Conyza canadensis)", "assay": "Test G pre/postemergence", "conditions": "Preemergence", "procedure,_shortened": "(§2)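 Pre- and postemergence greenhouse test; compound in non-phytotoxic solvent/surfactant mix. Post timing: 2–18 cm plants, 1- to 4-leaf. Visual rating vs controls at 12–21 d, 0 (no effect) to 100 (complete control).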"}, "[6]": {"tested_on": "spanishneedles (Bidens bipinnata)", "assay": "Test G pre/postemergence", "conditions": "Preemergence", "procedure,_shortened": "as §2"}},
  "data": [
    {"compound": "COC(=O)c1nc(C2CC2)nc(N)c1Cl", "note": "[Compound 9, methyl 6-amino-5-chloro-2-cyclopropyl-4-pyrimidinecarboxylate]", "values": [
      {"measurement": "Plant response rating, Sugarcane", "setting": "[1]; 250 g ai/ha", "value": 7},
      {"measurement": "Plant response rating, Sugarcane", "setting": "[1]; 500 g ai/ha", "value": 17},
      {"measurement": "Plant response rating, Sugarcane", "setting": "[1]; 31 g ai/ha", "value": 0},
      {"measurement": "Plant response rating, Sugarcane", "setting": "[1]; 62 g ai/ha", "value": 0},
      {"measurement": "Plant response rating, Sugarcane", "setting": "[1]; 125 g ai/ha", "value": 0},
      {"measurement": "Plant response rating (0 to 100 scale)", "setting": "[2]; 4 g a.i./ha", "value": 100},
      {"measurement": "Plant response rating (0 to 100 scale)", "setting": "[2]; 8 g a.i./ha", "value": 100},
      {"measurement": "Plant response rating (0 to 100 scale)", "setting": "[2]; 16 g a.i./ha", "value": 100},
      {"measurement": "Plant response rating (0 to 100 scale)", "setting": "[2]; 31 g a.i./ha", "value": 100},
      {"measurement": "Plant response rating (0 to 100 scale)", "setting": "[2]; 62 g a.i./ha", "value": 100},
      {"measurement": "Plant response rating (0 to 100 scale)", "setting": "[2]; 125 g a.i./ha", "value": 100},
      {"measurement": "Plant response rating (0 to 100 scale)", "setting": "[3]; 4 g a.i./ha", "value": 0},
      {"measurement": "Plant response rating (0 to 100 scale)", "setting": "[3]; 8 g a.i./ha", "value": 20},
      {"measurement": "Plant response rating (0 to 100 scale)", "setting": "[3]; 16 g a.i./ha", "value": 25},
      {"measurement": "Plant response rating (0 to 100 scale)", "setting": "[3]; 31 g a.i./ha", "value": 38},
      {"measurement": "Plant response rating (0 to 100 scale)", "setting": "[3]; 62 g a.i./ha", "value": 38},
      {"measurement": "Plant response rating (0 to 100 scale)", "setting": "[3]; 125 g a.i./ha", "value": 40},
      {"measurement": "Plant response rating (0 to 100 scale)", "setting": "[4]; 4 g a.i./ha", "value": 75},
      {"measurement": "Plant response rating (0 to 100 scale)", "setting": "[4]; 8 g a.i./ha", "value": 100},
      {"measurement": "Plant response rating (0 to 100 scale)", "setting": "[4]; 16 g a.i./ha", "value": 100},
      {"measurement": "Plant response rating (0 to 100 scale)", "setting": "[4]; 31 g a.i./ha", "value": 100},
      {"measurement": "Plant response rating (0 to 100 scale)", "setting": "[4]; 62 g a.i./ha", "value": 100},
      {"measurement": "Plant response rating (0 to 100 scale)", "setting": "[4]; 125 g a.i./ha", "value": 100},
      {"measurement": "Plant response rating, Horseweed", "setting": "[5]; 62 g ai/ha, scale 0-100", "value": 100},
      {"measurement": "Plant response rating, Horseweed", "setting": "[5]; 125 g ai/ha, scale 0-100", "value": 100},
      {"measurement": "Plant response rating, Horseweed", "setting": "[5]; 250 g ai/ha, scale 0-100", "value": 100},
      {"measurement": "Plant response rating, Horseweed", "setting": "[5]; 500 g ai/ha, scale 0 to 100", "value": 100},
      {"measurement": "Plant response rating, Spanishneedles", "setting": "[6]; 62 g ai/ha, scale 0-100", "value": 100},
      {"measurement": "Plant response rating, Spanishneedles", "setting": "[6]; 125 g ai/ha, scale 0-100", "value": 100},
      {"measurement": "Plant response rating, Spanishneedles", "setting": "[6]; 250 g ai/ha, scale 0-100", "value": 100},
      {"measurement": "Plant response rating, Spanishneedles", "setting": "[6]; 500 g ai/ha, scale 0 to 100", "value": 100}
    ]}
  ]
}
